Measured values taken from ChEMBL document CHEMBL5370693, “Kinases Controlling Stability of the Oncogenic MYCN Protein” (ACS Med Chem Lett, 2023).

Columns and labels:
[1] = tested on: Phosphatidylinositol 4,5-bisphosphate 3-kinase catalytic subunit alpha isoform (Homo sapiens), P42336 [Q546K]; test: Inhibition of PIK3CA Q546K mutant (unknown origin) assessed as remaining activity at 5 uM incubated for 1 hr by KINOMEscan competitive binding assay relative to control
[2] = target: T1, Phosphatidylinositol 3-kinase C2 domain-containing subunit gamma (Homo sapiens) (UniProt O75747); test: Inhibition of PIK3C2G (unknown origin) assessed as remaining activity at 10 uM incubated for 1 hr by KINOMEscan competitive binding assay relative to control
T1 sequence (whole entry): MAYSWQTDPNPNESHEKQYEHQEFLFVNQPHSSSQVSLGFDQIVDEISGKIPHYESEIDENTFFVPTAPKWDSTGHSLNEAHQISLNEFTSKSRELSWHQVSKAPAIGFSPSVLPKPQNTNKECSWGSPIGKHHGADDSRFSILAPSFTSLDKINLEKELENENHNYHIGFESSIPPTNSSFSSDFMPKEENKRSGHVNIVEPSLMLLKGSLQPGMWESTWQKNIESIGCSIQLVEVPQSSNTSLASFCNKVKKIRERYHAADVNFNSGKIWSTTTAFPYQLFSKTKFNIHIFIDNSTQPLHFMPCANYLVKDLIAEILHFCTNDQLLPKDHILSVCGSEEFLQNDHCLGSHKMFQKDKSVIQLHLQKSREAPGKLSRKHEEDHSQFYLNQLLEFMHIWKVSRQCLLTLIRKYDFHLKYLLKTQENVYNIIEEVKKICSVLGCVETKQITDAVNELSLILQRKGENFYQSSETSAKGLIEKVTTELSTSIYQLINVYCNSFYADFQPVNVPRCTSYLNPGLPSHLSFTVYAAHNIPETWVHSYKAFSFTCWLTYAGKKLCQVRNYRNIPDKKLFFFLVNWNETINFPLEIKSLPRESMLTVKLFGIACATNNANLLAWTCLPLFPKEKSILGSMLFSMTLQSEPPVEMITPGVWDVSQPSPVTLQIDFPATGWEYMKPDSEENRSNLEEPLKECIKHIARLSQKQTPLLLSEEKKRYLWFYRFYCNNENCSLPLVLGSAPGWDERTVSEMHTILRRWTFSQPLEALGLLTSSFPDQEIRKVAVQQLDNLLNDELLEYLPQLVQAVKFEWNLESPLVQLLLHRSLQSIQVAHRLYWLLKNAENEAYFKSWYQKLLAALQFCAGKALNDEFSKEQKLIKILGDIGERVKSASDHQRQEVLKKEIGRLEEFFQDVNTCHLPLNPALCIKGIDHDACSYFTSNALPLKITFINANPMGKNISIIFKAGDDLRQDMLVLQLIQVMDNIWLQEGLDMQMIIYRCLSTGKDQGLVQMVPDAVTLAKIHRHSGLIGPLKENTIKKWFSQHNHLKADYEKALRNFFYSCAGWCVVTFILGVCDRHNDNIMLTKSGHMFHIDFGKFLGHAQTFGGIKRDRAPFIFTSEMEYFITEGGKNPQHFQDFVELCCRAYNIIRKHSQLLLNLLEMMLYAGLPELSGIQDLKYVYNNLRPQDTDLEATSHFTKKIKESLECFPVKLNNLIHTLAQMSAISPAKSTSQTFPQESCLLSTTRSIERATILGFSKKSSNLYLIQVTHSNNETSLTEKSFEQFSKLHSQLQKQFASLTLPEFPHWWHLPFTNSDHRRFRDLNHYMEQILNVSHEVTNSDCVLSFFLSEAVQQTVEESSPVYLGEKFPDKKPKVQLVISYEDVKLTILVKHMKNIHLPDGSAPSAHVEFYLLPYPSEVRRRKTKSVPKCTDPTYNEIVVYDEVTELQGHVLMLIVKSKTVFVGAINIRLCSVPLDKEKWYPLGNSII

[3] = target: T2, Phosphatidylinositol 4,5-bisphosphate 3-kinase catalytic subunit delta isoform (Homo sapiens) (UniProt O00329); test: Inhibition of PIK3CD (unknown origin) assessed as remaining activity at 10 uM incubated for 1 hr by KINOMEscan competitive binding assay relative to control
T2 sequence (whole entry): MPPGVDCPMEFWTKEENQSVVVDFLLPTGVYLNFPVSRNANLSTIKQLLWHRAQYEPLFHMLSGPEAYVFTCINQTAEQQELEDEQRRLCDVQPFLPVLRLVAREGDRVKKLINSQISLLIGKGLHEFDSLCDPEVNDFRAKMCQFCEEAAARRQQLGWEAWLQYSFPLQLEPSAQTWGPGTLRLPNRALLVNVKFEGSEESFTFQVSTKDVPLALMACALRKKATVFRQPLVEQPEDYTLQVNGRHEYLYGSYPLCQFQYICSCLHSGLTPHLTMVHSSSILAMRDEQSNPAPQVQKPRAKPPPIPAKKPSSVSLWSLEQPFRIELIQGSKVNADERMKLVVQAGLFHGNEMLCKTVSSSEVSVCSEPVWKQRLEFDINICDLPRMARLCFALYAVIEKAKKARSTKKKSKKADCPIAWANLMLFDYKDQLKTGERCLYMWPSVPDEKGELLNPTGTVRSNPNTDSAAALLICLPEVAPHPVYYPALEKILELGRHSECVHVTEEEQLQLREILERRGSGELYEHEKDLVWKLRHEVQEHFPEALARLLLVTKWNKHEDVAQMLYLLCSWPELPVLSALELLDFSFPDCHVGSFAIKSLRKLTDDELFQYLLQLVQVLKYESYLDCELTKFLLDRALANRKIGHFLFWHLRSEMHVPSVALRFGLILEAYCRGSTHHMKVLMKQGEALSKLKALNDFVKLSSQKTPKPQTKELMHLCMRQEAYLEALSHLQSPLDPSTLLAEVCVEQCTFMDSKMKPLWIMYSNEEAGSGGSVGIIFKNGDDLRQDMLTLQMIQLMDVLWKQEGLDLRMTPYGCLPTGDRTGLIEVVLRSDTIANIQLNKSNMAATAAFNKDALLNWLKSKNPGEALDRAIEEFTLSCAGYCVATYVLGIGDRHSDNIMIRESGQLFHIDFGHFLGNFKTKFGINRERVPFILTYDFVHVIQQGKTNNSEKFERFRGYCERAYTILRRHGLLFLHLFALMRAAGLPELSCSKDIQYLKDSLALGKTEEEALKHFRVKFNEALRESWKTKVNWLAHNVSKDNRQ

Chain of Phosphatidylinositol 4,5-bisphosphate 3-kinase catalytic subunit alpha isoform (Homo sapiens), P42336 [Q546K] (P42336 whole entry Q546K, the tested form may be a part, canonical isoform): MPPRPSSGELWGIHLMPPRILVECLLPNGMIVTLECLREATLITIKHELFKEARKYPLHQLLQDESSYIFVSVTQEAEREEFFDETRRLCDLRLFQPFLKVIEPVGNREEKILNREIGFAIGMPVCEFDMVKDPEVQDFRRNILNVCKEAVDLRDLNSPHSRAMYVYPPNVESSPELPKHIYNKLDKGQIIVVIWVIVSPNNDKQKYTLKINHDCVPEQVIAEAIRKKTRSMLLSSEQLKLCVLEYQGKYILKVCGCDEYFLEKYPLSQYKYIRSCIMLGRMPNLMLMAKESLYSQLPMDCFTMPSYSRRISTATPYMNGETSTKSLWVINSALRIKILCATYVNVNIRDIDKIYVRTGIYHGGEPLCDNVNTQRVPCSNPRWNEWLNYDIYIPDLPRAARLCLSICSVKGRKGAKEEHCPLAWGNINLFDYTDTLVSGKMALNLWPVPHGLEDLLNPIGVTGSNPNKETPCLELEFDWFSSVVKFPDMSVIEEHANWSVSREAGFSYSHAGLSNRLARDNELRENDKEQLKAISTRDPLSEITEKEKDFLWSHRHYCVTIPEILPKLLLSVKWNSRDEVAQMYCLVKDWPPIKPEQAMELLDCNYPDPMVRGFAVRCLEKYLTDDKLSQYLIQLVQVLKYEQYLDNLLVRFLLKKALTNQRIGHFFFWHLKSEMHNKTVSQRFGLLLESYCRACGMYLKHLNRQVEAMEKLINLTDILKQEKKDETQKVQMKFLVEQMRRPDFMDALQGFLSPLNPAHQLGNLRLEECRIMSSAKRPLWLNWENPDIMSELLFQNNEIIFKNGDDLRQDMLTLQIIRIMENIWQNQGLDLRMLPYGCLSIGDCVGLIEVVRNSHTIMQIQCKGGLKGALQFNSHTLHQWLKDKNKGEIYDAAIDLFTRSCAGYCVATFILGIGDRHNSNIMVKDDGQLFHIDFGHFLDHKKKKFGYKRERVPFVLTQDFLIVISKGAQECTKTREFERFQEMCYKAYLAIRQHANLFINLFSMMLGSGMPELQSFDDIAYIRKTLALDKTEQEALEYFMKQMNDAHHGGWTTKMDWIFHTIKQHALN

SMILES | Activity [1] [%] | Activity [2] [%] | Activity [3] [%]
O=c1[nH]c2ccc(Cl)cc2c(N[C@@H]2CN3CCC2CC3)c1-c1nc2ccccc2[nH]1 | 62 |  | 
NC(=O)Nc1cc(-c2cccc(F)c2)sc1C(=O)N[C@H]1CCCNC1 |  | 98 | 81
